Source: PubChem BioAssay AID2454 (Broad Institute, 2010)

System: H4 cells, SNCA 5'UTR luciferase reporter translation
Experiment: inhibitors of SNCA 5'UTR-driven translation, confirmation, luminescence, H4 neuroglioblastoma cells, dose confirmation (AID 2454)

## COc1ccc(O)c2c(=O)c3c(OC)cc4c(c3oc12)C1C=COC1O4 (stereo unspecified)
  EC50: 569 nM
